Measurements: patent publication US20250188038A1, “CRYSTALLINE FORMS OF N-{[(S)-{[3-(4-CHLOROPHENYL)-4-PHENYL-4,5-DIHYDRO-1H-PYRAZOL-1-YL][4-(TRIFLUOROMETHYL)BENZENE” (Novo Nordisk A/S, priority 2022, published 2025)
In brackets after ≈: the same amount, converted by molar mass. Entries after “also recorded” stand apart in the source; their conditions may differ.

Tests used:
Assay type in all cases: physicochemical
[1] = Ambient drying of wet cake solids, form followed by XRPD
Method: Form A obtained from anti-solvent addition in ACN/H2O was further investigated by analyzing the wet solids by XRPD. The sample was covered with 3511 Kapton film to minimize the solvent evaporation from the wet cake. A unique pattern, different from Form A was observed indicating a labile solvate phase forms in this solvent system.
Form B was obtained by temperature cycling in IPA. The formation of Form B was also observed in IPA slurry at RT and 60° C. Form B was further characterized by analyzing the wet cake by XRPD. The sample on the XRPD sample holder was covered by 3511 Kapton Film to minimize the solvent evaporation from the sample. […] Comparing the KF and TGA results, it was concluded that Form B is an IPA solvate, more specifically, a hemi-solvate determined by calculating the API:Solvent stoichiometry from the TGA weight loss to be 1:0.6.
(§1) Form D was obtained by temperature cycling in toluene. The formation of Form D was also observed in 60° C. slurry and slow cooling using toluene. Form D was further characterized by analyzing the wet solids by XRPD. The sample on the XRPD sample holder was covered by 3511 Kapton Film to minimize the solvent evaporation from the sample. […] The minimal weight loss observed indicated an anhydrous phase.
as §1, with “Form E” for “Form D”, “in IPAc/MTBE (1:3 v/v).” for “in toluene.”, “in anti-solvent addition, crash cooling, and” for “in 60° C.”, “slurry at RT experiments” for “slurry and slow cooling”, “using MTBE, 2-MeTHF, or” for “using”
Form F was obtained by temperature cycling in THF/H2O (0.92/0.08 v/v Aw=0.2). The formation of Form F was also observed in RT slurry in THF/H2O at Aw=0.4 and 0.6, and in temperature cycling in THF/H2O (1:3). Form F was further characterized by analyzing the wet solids by XRPD. The sample on the XRPD sample holder was covered by 3511 Kapton film to minimize the solvent evaporation. […] Comparing the KF and TGA results, it was concluded that Form F is likely a THF solvate.

[2] = Slurry competition of Form K and Form C at various water activities (critical water activity); conditions: for Relative stability, Form K vs Form C slurry: EtOH/H2O
Text: One hydrate (Form K) was observed and found to be a hemi-hydrate. […] It was suspected that EtOH may be forming a solvate that favors the formation of Form K because at higher water activities, the hydrate should be more thermodynamically stable. The values and results for obtaining the critical water activity follows the laws of thermodynamics and the results obtained from this experiment can be transferred to another solvent/H2O system. Additional critical water activity experiments were performed in acetone/H2O at Aw=0.5 and 0.9 using Form K and Form C.

[3] = Slurry competition of the six anhydrates in n-butanol (thermodynamic assessment); conditions: all anhydrates in equal mass ratios, RT and 50° C.
Method: A total of six anhydrates, Forms A, C, D, E, N, and Q were observed. A thermodynamic assessment of all anhydrates was performed by slurrying all anhydrates in equal mass ratios in a non-solvating solvent, n-Butanol, at RT and 50° C.

[4] = Approximate solubility of Form A in 20 single solvents at RT; conditions: thermodynamic from solid
Method: Approximate solubility of Form A was determined in 20 single solvents at RT, respectively. Approximately 2 mg of Form A was added into a 3-mL glass vial. Corresponding solvents were added stepwise (50 μL-50 μL-200 μL-700 μL) into the vials until the solids were dissolved visually or a total volume of 1 mL was reached. The ranges of approximate solubility were calculated according to the mass of sample, volume of solvent and observation. The results summarized in Table 2 were used to guide the solvent selection in polymorph screening.

CC(=O)N/C(N)=N/C(=N\S(=O)(=O)c1ccc(C(F)(F)F)cc1)N1C[C@H](c2ccccc2)C(c2ccc(Cl)cc2)=N1 [Form H, N-{[(S)-{[3-(4-chlorophenyl)-4-phenyl-4,5-dihydro-1H-pyrazol-1-yl][4-(trifluoromethyl)benzenesulfonamido]methylidene}amino]methanimidoyl}acetamide]
Solid form conversion upon ambient drying [1]: converted to Form D

CC(=O)N/C(N)=N/C(=N\S(=O)(=O)c1ccc(C(F)(F)F)cc1)N1C[C@H](c2ccccc2)C(c2ccc(Cl)cc2)=N1 [Form P, N-{[(S)-{[3-(4-chlorophenyl)-4-phenyl-4,5-dihydro-1H-pyrazol-1-yl][4-(trifluoromethyl)benzenesulfonamido]methylidene}amino]methanimidoyl}acetamide]
Solid form conversion upon ambient drying [1]: converted to Form E

CC(=O)N/C(N)=N/C(=N\S(=O)(=O)c1ccc(C(F)(F)F)cc1)N1C[C@H](c2ccccc2)C(c2ccc(Cl)cc2)=N1 [Form G, N-{[(S)-{[3-(4-chlorophenyl)-4-phenyl-4,5-dihydro-1H-pyrazol-1-yl][4-(trifluoromethyl)benzenesulfonamido]methylidene}amino]methanimidoyl}acetamide]
Solid form conversion upon ambient drying [1]: converted to Form F

CC(=O)N/C(N)=N/C(=N\S(=O)(=O)c1ccc(C(F)(F)F)cc1)N1C[C@H](c2ccccc2)C(c2ccc(Cl)cc2)=N1 [Form K, N-{[(S)-{[3-(4-chlorophenyl)-4-phenyl-4,5-dihydro-1H-pyrazol-1-yl][4-(trifluoromethyl)benzenesulfonamido]methylidene}amino]methanimidoyl}acetamide]
Stability of the hydrate (conclusion of critical water activity experiments) [2]: not a stable hydrate | Relative stability, Form K vs Form C slurry ([2]; 0.1<Aw<0.9, equal mass ratios): more stable | Outcome of Form K and Form C slurry ([2]; acetone/H2O, Aw=0.5 and 0.9): conversion to Form C

CC(=O)N/C(N)=N/C(=N\S(=O)(=O)c1ccc(C(F)(F)F)cc1)N1C[C@H](c2ccccc2)C(c2ccc(Cl)cc2)=N1 [Form E, N-{[(S)-{[3-(4-chlorophenyl)-4-phenyl-4,5-dihydro-1H-pyrazol-1-yl][4-(trifluoromethyl)benzenesulfonamido]methylidene}amino]methanimidoyl}acetamide]
Relative thermodynamic stability of anhydrates (outcome of slurry competition) [3]: conversion of all anhydrates to Form C

CC(=O)N/C(N)=N/C(=N\S(=O)(=O)c1ccc(C(F)(F)F)cc1)N1C[C@H](c2ccccc2)C(c2ccc(Cl)cc2)=N1 [Form N, N-{[(S)-{[3-(4-chlorophenyl)-4-phenyl-4,5-dihydro-1H-pyrazol-1-yl][4-(trifluoromethyl)benzenesulfonamido]methylidene}amino]methanimidoyl}acetamide]
Relative thermodynamic stability of anhydrates (outcome of slurry competition) [3]: conversion of all anhydrates to Form C

CC(=O)N/C(N)=N/C(=N\S(=O)(=O)c1ccc(C(F)(F)F)cc1)N1C[C@H](c2ccccc2)C(c2ccc(Cl)cc2)=N1 [Form Q, N-{[(S)-{[3-(4-chlorophenyl)-4-phenyl-4,5-dihydro-1H-pyrazol-1-yl][4-(trifluoromethyl)benzenesulfonamido]methylidene}amino]methanimidoyl}acetamide]
Relative thermodynamic stability of anhydrates (outcome of slurry competition) [3]: conversion of all anhydrates to Form C

CC(=O)N/C(N)=N/C(=N\S(=O)(=O)c1ccc(C(F)(F)F)cc1)N1C[C@H](c2ccccc2)C(c2ccc(Cl)cc2)=N1 [Form A, N-{[(S)-{[3-(4-chlorophenyl)-4-phenyl-4,5-dihydro-1H-pyrazol-1-yl][4-(trifluoromethyl)benzenesulfonamido]methylidene}amino]methanimidoyl}acetamide]
solubility ([4]; Anisole, organic solvent or mixture): > 10000 µg/mL | solubility ([4]; EtOH, organic solvent or mixture): > 10000 µg/mL | solubility ([4]; IPA, organic solvent or mixture): < 3000 µg/mL | solubility ([4]; MTBE, organic solvent or mixture): < 3000 µg/mL | solubility ([4]; Toluene, organic solvent or mixture): 2000 to 10000 µg/mL (≈ 3.38 to 16.9 mM) | solubility ([4]; Water): < 3000 µg/mL | solubility ([4]; n-heptane, organic solvent or mixture): < 3000 µg/mL | Relative thermodynamic stability of anhydrates (outcome of slurry competition) [3]: conversion of all anhydrates to Form C

CC(=O)N/C(N)=N/C(=N\S(=O)(=O)c1ccc(C(F)(F)F)cc1)N1C[C@H](c2ccccc2)C(c2ccc(Cl)cc2)=N1 [Form I, N-{[(S)-{[3-(4-chlorophenyl)-4-phenyl-4,5-dihydro-1H-pyrazol-1-yl][4-(trifluoromethyl)benzenesulfonamido]methylidene}amino]methanimidoyl}acetamide]
Solid form conversion upon ambient drying [1]: converted to Form B

CC(=O)N/C(N)=N/C(=N\S(=O)(=O)c1ccc(C(F)(F)F)cc1)N1C[C@H](c2ccccc2)C(c2ccc(Cl)cc2)=N1 [Form D, N-{[(S)-{[3-(4-chlorophenyl)-4-phenyl-4,5-dihydro-1H-pyrazol-1-yl][4-(trifluoromethyl)benzenesulfonamido]methylidene}amino]methanimidoyl}acetamide]
Relative thermodynamic stability of anhydrates (outcome of slurry competition) [3]: conversion of all anhydrates to Form C

CC(=O)N/C(N)=N/C(=N\S(=O)(=O)c1ccc(C(F)(F)F)cc1)N1C[C@H](c2ccccc2)C(c2ccc(Cl)cc2)=N1 [Form C, N-{[(S)-{[3-(4-chlorophenyl)-4-phenyl-4,5-dihydro-1H-pyrazol-1-yl][4-(trifluoromethyl)benzenesulfonamido]methylidene}amino]methanimidoyl}acetamide]
Relative stability, Form K vs Form C slurry ([2]; Aw>0.9, equal mass ratios): more stable | Relative thermodynamic stability of anhydrates (outcome of slurry competition) [3]: thermodynamically most stable anhydrous form; also recorded: most stable anhydrate
